Assay results taken from PMC10272112 (Nature Communications, 2023).
Like-named read-outs stand apart in the source and are kept apart here.

Target: T1, HDAC6 (Homo sapiens, UniProt Q9UBN7)
T1 sequence (Q9UBN7 1-1215): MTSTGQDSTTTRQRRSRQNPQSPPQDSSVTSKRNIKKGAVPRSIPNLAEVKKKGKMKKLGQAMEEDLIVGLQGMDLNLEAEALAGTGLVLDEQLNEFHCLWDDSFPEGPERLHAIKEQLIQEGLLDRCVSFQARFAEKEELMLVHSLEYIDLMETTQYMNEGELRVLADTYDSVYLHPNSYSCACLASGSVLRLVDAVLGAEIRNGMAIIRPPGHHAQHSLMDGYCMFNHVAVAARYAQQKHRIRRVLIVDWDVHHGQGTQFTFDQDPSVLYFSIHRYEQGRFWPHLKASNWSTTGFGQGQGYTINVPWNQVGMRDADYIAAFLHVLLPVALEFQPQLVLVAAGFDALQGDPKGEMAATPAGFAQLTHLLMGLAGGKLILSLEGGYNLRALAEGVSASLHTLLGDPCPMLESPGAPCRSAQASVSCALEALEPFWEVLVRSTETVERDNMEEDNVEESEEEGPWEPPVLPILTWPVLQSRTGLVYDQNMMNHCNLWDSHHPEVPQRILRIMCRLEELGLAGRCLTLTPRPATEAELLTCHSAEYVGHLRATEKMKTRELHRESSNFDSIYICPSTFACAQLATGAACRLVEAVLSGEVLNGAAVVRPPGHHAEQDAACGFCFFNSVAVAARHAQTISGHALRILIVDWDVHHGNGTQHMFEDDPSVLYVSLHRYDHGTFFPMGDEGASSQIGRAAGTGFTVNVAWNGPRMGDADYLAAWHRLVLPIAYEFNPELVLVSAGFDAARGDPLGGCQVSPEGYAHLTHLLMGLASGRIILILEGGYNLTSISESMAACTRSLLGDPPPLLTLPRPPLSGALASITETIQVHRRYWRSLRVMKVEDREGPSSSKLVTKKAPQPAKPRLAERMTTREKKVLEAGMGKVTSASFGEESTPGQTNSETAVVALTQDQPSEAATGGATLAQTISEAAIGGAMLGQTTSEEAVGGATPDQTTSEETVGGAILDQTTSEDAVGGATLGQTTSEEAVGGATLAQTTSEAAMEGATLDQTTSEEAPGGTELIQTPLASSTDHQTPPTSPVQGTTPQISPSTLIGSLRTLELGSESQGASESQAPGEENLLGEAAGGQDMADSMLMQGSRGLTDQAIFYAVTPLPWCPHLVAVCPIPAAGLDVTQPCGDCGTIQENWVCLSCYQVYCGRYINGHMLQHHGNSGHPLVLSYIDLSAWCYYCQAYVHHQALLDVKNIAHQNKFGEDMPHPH
Assay: Chemoproteomic competition pulldown assay
Type: binding
Set-up: endogenous in cells; host or cells: SW620, MV4-11, A549 lysates
Experimental: To identify proteins directly bound by lipoic acid, we employed a chemoproteomic competition assay. Briefly, (R/S)-LA was immobilized on sepharose beads via an amidation reaction to form an affinity matrix (abbreviated as iL; Fig. 1a). This affinity matrix can be incubated with cell lysate to pull down potential LA or LM target proteins and identify these targets via bottom-up proteomics. In a competition assay, free LA or LM were incubated with lysate at different concentrations before pulling down and quantifying target proteins. […] (Fig. 1b, see “Methods” for details). […] The lysate buffer used in this assay contains 1 mM DTT to mimic the intracellular reductive milieu and to reduce lipoic acid and LM. […] Additional competition assays performed in lung adenocarcinoma cell A549 lysate also identified HDAC1, HDAC2, and HDAC6 as targets (Supplementary Fig. 1b). Amongst the three cell lines tested, HDACs were the only confidently identified targets across the 1500–3000 proteins quantified in these assays. […] We validated the results by analogous pulldown competition assays using two other affinity matrices prepared via the immobilization of either the HDAC inhibitor Quisinostat (iQ) and an analog of the class IIa HDAC inhibitor Bürli’s 31[14] (iC)[12]. We have previously shown that these affinity matrices specifically bind to the active sites of HDACs and have used them for HDACi selectivity profiling. Indeed, binding of (R/S)-LA and (R/S)-LM to HDAC1, HDAC2, HDAC3, HDAC6, and, to a lesser extent, HDAC8 was confirmed in these assays (Supplementary Fig. 1c, d). No binding to class IIa HDACs or the recently discovered common HDAC inhibitor off-target MBLAC2 was observed (Supplementary Fig. 1e)[12]. […] This observation might reflect electrostatic repulsion between the HDAC10 active site gate-keeper glutamic acid residues[15],[16] and the terminal carboxylic acid of LA.
To assess the degree of protein depletion from lysates by the affinity matrix, a second pulldown (PDPD) with fresh beads was performed using the unbound protein fraction from the vehicle control flow through. The beads were washed (1 × 1 mL of lysis buffer without inhibitors and only 0.4% Igepal, 2 × 2 mL of lysis buffer without inhibitors and only 0.2% Igepal), and captured proteins were denatured with 8 M urea buffer, alkylated with 55 mM chloroacetamide and digested with Trypsin according to standard procedures. The resulting peptides were desalted on a C18 filter plate (Sep-Pak® tC18 µElution Plate, Waters), vacuum dried, and stored at −20 °C until LC–MSMS measurement.
For the competition assays, relative binding was calculated based on the protein intensity ratio to the DMSO control for every single inhibitor concentration. EC50 values were derived from a four-parameter log-logistic regression with variable slope (constrain: bottom > 0). The obtained EC50 values were multiplied with a protein-dependent correction factor (cf), resulting in the apparent Kd value (Kd^app). The correction factor is determined by calculating the ratio of the protein intensity of two consecutive pulldowns of the vehicle control sample[13]. Targets of the inhibitors were annotated manually according to published procedures[12],[46],[47]. […] Additionally, the number of unique peptides and MSMS counts per condition were taken into account. Positive target binding across several independent experiments performed with different cell lysates further substantiated our confidence for a true positive drug-target binding event.

[1] = iL, SW620, read-out: pKdapp (converted)
[2] = iQ, SW620, read-out: pKdapp (converted)
[3] = iQ, SW620 lysate, log10 M -3.52288
[4] = iQ, SW620 lysate, log10 M -4.52288
[5] = iQ, SW620 lysate, log10 M -5.52288
[6] = iQ, SW620 lysate, log10 M -6.52288

For `O=C(O)CCCCC1CCSS1` (racemic) [(R/S)-LA, (R/S)-lipoic acid], the Kd (iL, A549, read-out: pKdapp (converted)) was 5.01 µM, the “relative binding vs DMSO” value (iL, A549 lysate, log10 M -4) was 0.05504 and the “relative binding vs DMSO” value (iL, A549 lysate, log10 M -4.52288) was 0.1518. For the same compound, the “relative binding vs DMSO” value (iL, A549 lysate, log10 M -5) was 0.3845, the “relative binding vs DMSO” value (iL, A549 lysate, log10 M -5.52288) was 0.7285 and the “relative binding vs DMSO” value (iL, A549 lysate, log10 M -6) was 0.9189. For the same compound, the “relative binding vs DMSO” value (iL, A549 lysate, log10 M -6.52288) was 1.088, the “relative binding vs DMSO” value (iL, A549 lysate, log10 M -7.52288) was 1.108 and the “relative binding vs DMSO” value (iL, A549 lysate, log10 M -8) was 1.195. For the same compound, the “relative binding vs DMSO” value (iL, A549 lysate, log10 M -8.52288) was 0.9886, the Kd [1] was 10 µM and the “relative binding vs DMSO” value (iL, SW620 lysate, log10 M -3.52288) was 0.1052. The “relative binding vs DMSO” value (iL, SW620 lysate, log10 M -4) was 0.1618, the “relative binding vs DMSO” value (iL, SW620 lysate, log10 M -4.52288) was 0.8697 and the “relative binding vs DMSO” value (iL, SW620 lysate, log10 M -5) was 1.623. The “relative binding vs DMSO” value (iL, SW620 lysate, log10 M -5.52288) was 0.9452, the “relative binding vs DMSO” value (iL, SW620 lysate, log10 M -6) was 1.514 and the “relative binding vs DMSO” value (iL, SW620 lysate, log10 M -6.52288) was 0.6952. The “relative binding vs DMSO” value (iL, SW620 lysate, log10 M -7) was 1.008, the Kd [2] was 10 µM and the “relative binding vs DMSO” value [3] was 0.2137. For the same compound, the “relative binding vs DMSO” value (iQ, SW620 lysate, log10 M -4) was 0.2383, the “relative binding vs DMSO” value [4] was 0.4233 and the “relative binding vs DMSO” value (iQ, SW620 lysate, log10 M -5) was 0.664. The “relative binding vs DMSO” value [5] was 0.8619, the “relative binding vs DMSO” value (iQ, SW620 lysate, log10 M -6) was 0.8804 and the “relative binding vs DMSO” value [6] was 1.0379. For the same compound, the “relative binding vs DMSO” value (iQ, SW620 lysate, log10 M -7) was 0.9144.
With `NC(=O)CCCCC1CCSS1` (racemic) [(R/S)-LM, (R/S)-lipoamide] the “relative binding vs DMSO” value (iL, MV4-11 lysate, log10 M -3.52288) was 0.06003, the “relative binding vs DMSO” value (iL, MV4-11 lysate, log10 M -4) was 0.1375 and the “relative binding vs DMSO” value (iL, MV4-11 lysate, log10 M -4.52288) was 0.3195. For the same compound, the “relative binding vs DMSO” value (iL, MV4-11 lysate, log10 M -5) was 0.763, the “relative binding vs DMSO” value (iL, MV4-11 lysate, log10 M -5.52288) was 0.7012 and the “relative binding vs DMSO” value (iL, MV4-11 lysate, log10 M -6) was 0.776. The “relative binding vs DMSO” value (iL, MV4-11 lysate, log10 M -6.52288) was 0.9127, the “relative binding vs DMSO” value (iL, MV4-11 lysate, log10 M -7) was 0.9147 and the Kd (iL, MV4-11 lysate, read-out: Kd app) was 21 µM. It also gave a Kd (iL, MV411, read-out: pKdapp (converted)) of 10 µM, a Kd [1] of 15.8 µM and a Kd [2] of 10 µM. The “relative binding vs DMSO” value [3] was 0.1855, the “relative binding vs DMSO” value (iQ, SW620 lysate, log10 M -4) was 0.2172 and the “relative binding vs DMSO” value [4] was 0.4129. For the same compound, the “relative binding vs DMSO” value (iQ, SW620 lysate, log10 M -5) was 0.6644, the “relative binding vs DMSO” value [5] was 0.9409 and the “relative binding vs DMSO” value (iQ, SW620 lysate, log10 M -6) was 1.062. For the same compound, the “relative binding vs DMSO” value [6] was 0.8866 and the “relative binding vs DMSO” value (iQ, SW620 lysate, log10 M -7) was 0.9139.
